From article PMC6013247, “Preclinical characterization of INCB053914, a novel pan-PIM kinase inhibitor, alone and in combination with anticancer agents, in models of hematologic malignancies” (PLoS ONE, 2018)

Columns and labels:
INA-6 cells = assay: STAT3(Y705) and PIM kinase substrate phosphorylation in INA-6 cells in culture; assay type: cell-based; settings: INA-6 cells treated for 24 hours in culture
Description: Fig S1. Effects of INCB053914 on STAT3(Y705) and PIM kinase substrate phosphorylation in INA-6 cells treated for 24 hours in culture.

[1] = tested on: pBAD, pSTAT3 and MYC in INA-6 (MM) tumors; assay: pBAD, pSTAT3 and MYC levels in INA-6 (MM) tumors; assay type: in vivo, mouse; settings: INA-6 (MM) tumors in mice
Description: The PI3Kδ inhibitor INCB050465 (10 mg/kg once a day orally) was evaluated in combination with INCB053914 (30 mg/kg once a day orally) in mice bearing Pfeiffer (DLBCL) xenografts, a model sensitive to PI3Kδ inhibition (eight mice/group). Cytarabine was administered via intraperitoneal injection at a standard dose of 20 mg/kg twice a week, in combination with oral INCB053914 at a submaximally efficacious dose of 20 mg/kg twice a day for 12 days in mice bearing human KG-1 AML xenografts, a cytarabine-sensitive model (eight mice/group). The oral JAK1-selective inhibitor itacitinib (60 mg/kg twice a day orally) was assessed in combination with INCB053914 (100 mg/kg twice a day orally) after 8 days of administration to SCID mice bearing INA-6 (MM) xenografts (eight mice/group), a model sensitive to JAK inhibition.

[2] = tested on: human KG-1 AML xenografts; assay: Tumor growth in KG-1 (AML) xenograft, combination with cytarabine; assay type: in vivo, mouse; settings: KG-1 (AML) tumors
Description: Female immune compromised (severe combined immunodeficiency [SCID]) mice (5–9 weeks of age; Charles River Laboratories, Wilmington, Massachusetts) were inoculated with MOLM-16, KG-1, or KMS-12-BM cells. A cell suspension in Dulbecco’s phosphate-buffered saline (DPBS) (1 × 10^8 cells/ml) was mixed 1:1 (v/v) with matrigel, and 200 μl was injected subcutaneously into the flank of each mouse. […] The treatment of tumor-bearing mice started 7 to 24 days after tumor inoculation for efficacy studies and approximately 14 to 27 days after tumor inoculation for pharmacodynamic studies.
Synergistic effects of INCB053914 in combination with INCB050465, cytarabine, or itacitinib, were assessed based on the Bliss independence model [56, 57]. In this model, the expected additive effect, with the assumption that concentration dependent effects of 2 drugs (A and B) are independent, is given by the equation EIND = EA + EB – EA •EB, where 0 ≤ EIND ≤ 1; EA and EB are the magnitudes of effects of A and B alone at given concentrations.
The interaction between effects of A and B can be described by the equation Combination Index = EIND/ EOBS, where EOBS is the observed combined effect of A + B expressed as a probability (0 ≤ EOBS ≤ 1). […]

[3] = tested on: PIM isozyme expression in Pfeiffer DLBCL cells; assay: PIM isozyme expression in Pfeiffer DLBCL cells; assay type: cell-based
Pfeiffer DLBCL cells = assay: In vitro proliferation of Pfeiffer DLBCL cells, single agents and combination; assay type: cell-based
Description: Synergistic effects of INCB053914 in combination with INCB050465, cytarabine, or itacitinib, were assessed based on the Bliss independence model. In this model, the expected additive effect, with the assumption that concentration dependent effects of 2 drugs (A and B) are independent, is given by the equation EIND = EA + EB – EA •EB, where 0 ≤ EIND ≤ 1; EA and EB are the magnitudes of effects of A and B alone at given concentrations.
The interaction between effects of A and B can be described by the equation Combination Index = EIND/ EOBS, where EOBS is the observed combined effect of A + B expressed as a probability (0 ≤ EOBS ≤ 1). If the point estimate of Combination Index and its upper 97.5% confidence limit are <1 then the combined effect is synergistic; if the 2-sided 95% confidence intervals (CI) encompass 1 then the combined effect is additive (ie, independent); if the point estimate of Combination Index and the lower 2.5% confidence limit are >1 then the combined effect of A + B are antagonistic.

In the case of `N#CC[C@H](C1CCCC1)n1cc(-c2ncnc3[nH]ccc23)cn1` [ruxolitinib], the “PIM kinase substrate phosphorylation” value (INA-6 cells) is reported as “unaffected”.
With `N#CCC1(n2cc(-c3ncnc4[nH]ccc34)cn2)CN(C2CCN(C(=O)c3ccnc(C(F)(F)F)c3F)CC2)C1` [itacitinib, reference compound] the MYC levels [1] was “decreased MYC levels”, the “level of pSTAT3” value [1] was “decrease” and the “PIM kinase substrate phosphorylation” value (INA-6 cells) was “unaffected”.
With `Nc1ccn([C@@H]2O[C@H](CO)[C@@H](O)[C@@H]2O)c(=O)n1` [cytarabine, Cytarabine, reference compound] the “tumor growth, single agent” value [2] was “inhibited”.
`CCOc1c([C@H](C)n2nc(C)c3c(N)ncnc32)cc(Cl)c(F)c1[C@@H]1CNC(=O)C1` [INCB050465] was tested, and the “expression of all three PIM isozymes relative to baseline” value [3] was “concentration-dependent increases”, the “increase in PIM2 expression relative to baseline” value [3] was ~ 2.5 fold and the “proliferation of Pfeiffer cells, single agent” value (Pfeiffer DLBCL cells) was “inhibited”.
